Test results reported in PubChem BioAssay AID2060909 (Molecular Pharmacology Branch, DTP, NCI, 2025).

Test system: 362531-283-R-J2-PDC complex spheroid viability
Assay: Anticancer human tumor 362531-283-R-J2-PDC patient-derived colon adenocarcinoma cell line growth inhibition [RAS]
Conditions: for IC50: curve of first compound; for viability, T/C: stronger effect = lower value
Summary of the method: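 Agents were tested in combination matrices in half-log decrements from a top concentration at or near clinical Cmax (10 microM if undetermined). Targets were multi-cell spheroids of tumour lines plus HUVEC and MSC stromal cells.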
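Note: spheroids exposed to the agents for 7 days before readout.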
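Throughout, for viability, T/C: luminescence viability as percent of DMSO vehicle control wells.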

Cc1nc(N2CCC3(CC2)COC(C)C3N)c(CO)nc1Sc1ccnc(N)c1Cl (centres undefined) + C#Cc1c(F)ccc2cc(O)cc(-c3ncc4c(N5CC6CCC(C5)N6)nc(OCC56CCCN5CC(F)C6)nc4c3F)c12
IC50 (second compound 0.0316 µM): 5180 nM
IC50 (second compound 0.1 µM): 1650 nM
IC50 (second compound 0.316 µM): 883 nM
IC50 (second compound 1 µM): 482 nM
IC50 (second compound 3.16 µM): 156 nM
IC50 (second compound 10 µM): < 31.6 nM
viability, T/C (second compound 0.0316 µM, first compound 0.0316 µM): 104%
viability, T/C (second compound 0.0316 µM, first compound 0.1 µM): 107%
viability, T/C (second compound 0.0316 µM, first compound 0.316 µM): 94.8%
viability, T/C (second compound 0.0316 µM, first compound 1 µM): 88.9%
viability, T/C (second compound 0.0316 µM, first compound 3.16 µM): 76.1%
viability, T/C (second compound 0.0316 µM, first compound 10 µM): 19.1%
viability, T/C (second compound 0.1 µM, first compound 0.0316 µM): 104%
viability, T/C (second compound 0.1 µM, first compound 0.1 µM): 102%
viability, T/C (second compound 0.1 µM, first compound 0.316 µM): 92.3%
viability, T/C (second compound 0.1 µM, first compound 1 µM): 69.5%
viability, T/C (second compound 0.1 µM, first compound 3.16 µM): 25.7%
viability, T/C (second compound 0.1 µM, first compound 10 µM): 4.47%
viability, T/C (second compound 0.316 µM, first compound 0.0316 µM): 99.9%
viability, T/C (second compound 0.316 µM, first compound 0.1 µM): 93.3%
viability, T/C (second compound 0.316 µM, first compound 0.316 µM): 79.2%
viability, T/C (second compound 0.316 µM, first compound 1 µM): 49.8%
viability, T/C (second compound 0.316 µM, first compound 3.16 µM): 7.28%
viability, T/C (second compound 0.316 µM, first compound 10 µM): 4.45%
viability, T/C (second compound 1 µM, first compound 0.0316 µM): 81%
viability, T/C (second compound 1 µM, first compound 0.1 µM): 81.5%
viability, T/C (second compound 1 µM, first compound 0.316 µM): 69.5%
viability, T/C (second compound 1 µM, first compound 1 µM): 16.2%
viability, T/C (second compound 1 µM, first compound 3.16 µM): 7.77%
viability, T/C (second compound 1 µM, first compound 10 µM): 4.16%
viability, T/C (second compound 3.16 µM, first compound 0.0316 µM): 81%
viability, T/C (second compound 3.16 µM, first compound 0.1 µM): 59.2%
viability, T/C (second compound 3.16 µM, first compound 0.316 µM): 35.6%
viability, T/C (second compound 3.16 µM, first compound 1 µM): 11%
viability, T/C (second compound 3.16 µM, first compound 3.16 µM): 9.29%
viability, T/C (second compound 3.16 µM, first compound 10 µM): 6.04%
viability, T/C (second compound 10 µM, first compound 0.0316 µM): 38%
viability, T/C (second compound 10 µM, first compound 0.1 µM): 22.6%
viability, T/C (second compound 10 µM, first compound 0.316 µM): 14.1%
viability, T/C (second compound 10 µM, first compound 1 µM): 13.3%
viability, T/C (second compound 10 µM, first compound 3.16 µM): 8.12%
viability, T/C (second compound 10 µM, first compound 10 µM): 3.97%

CC(Nc1ccc2c(c1)OCCn1cc(N3C(=O)OCC3C(F)F)nc1-2)C(N)=O (centres undefined) + CCn1c(-c2cccnc2C(C)OC)c2c3cc(ccc31)N1CCOC(CC(NC(=O)C(C(C)C)N(C)C(=O)C3(F)CCN(C(=O)C#CC(C)(C)N(C)C)CC3)C(=O)N3CCCC(N3)C(=O)OCC(C)(C)C2)C1
IC50 (second compound 0.000949 µM): 1530 nM
IC50 (second compound 0.003 µM): 1290 nM
IC50 (second compound 0.00949 µM): 1680 nM
IC50 (second compound 0.03 µM): 2090 nM
IC50 (second compound 0.0949 µM): 1650 nM
IC50 (second compound 0.3 µM): 1510 nM
viability, T/C (second compound 0.000949 µM, first compound 0.0316 µM): 103%
viability, T/C (second compound 0.000949 µM, first compound 0.1 µM): 107%
viability, T/C (second compound 0.000949 µM, first compound 0.316 µM): 92.1%
viability, T/C (second compound 0.000949 µM, first compound 1 µM): 59.6%
viability, T/C (second compound 0.000949 µM, first compound 3.16 µM): 34.2%
viability, T/C (second compound 0.000949 µM, first compound 10 µM): 29%
viability, T/C (second compound 0.003 µM, first compound 0.0316 µM): 106%
viability, T/C (second compound 0.003 µM, first compound 0.1 µM): 95.5%
viability, T/C (second compound 0.003 µM, first compound 0.316 µM): 92.9%
viability, T/C (second compound 0.003 µM, first compound 1 µM): 52.4%
viability, T/C (second compound 0.003 µM, first compound 3.16 µM): 36.8%
viability, T/C (second compound 0.003 µM, first compound 10 µM): 24.4%
viability, T/C (second compound 0.00949 µM, first compound 0.0316 µM): 95.4%
viability, T/C (second compound 0.00949 µM, first compound 0.1 µM): 106%
viability, T/C (second compound 0.00949 µM, first compound 0.316 µM): 87.8%
viability, T/C (second compound 0.00949 µM, first compound 1 µM): 62.4%
viability, T/C (second compound 0.00949 µM, first compound 3.16 µM): 35.7%
viability, T/C (second compound 0.00949 µM, first compound 10 µM): 28.4%
viability, T/C (second compound 0.03 µM, first compound 0.0316 µM): 98.4%
viability, T/C (second compound 0.03 µM, first compound 0.1 µM): 96.5%
viability, T/C (second compound 0.03 µM, first compound 0.316 µM): 87.1%
viability, T/C (second compound 0.03 µM, first compound 1 µM): 65.3%
viability, T/C (second compound 0.03 µM, first compound 3.16 µM): 41.7%
viability, T/C (second compound 0.03 µM, first compound 10 µM): 24.9%
viability, T/C (second compound 0.0949 µM, first compound 0.0316 µM): 93.9%
viability, T/C (second compound 0.0949 µM, first compound 0.1 µM): 91.4%
viability, T/C (second compound 0.0949 µM, first compound 0.316 µM): 88.5%
viability, T/C (second compound 0.0949 µM, first compound 1 µM): 60.5%
viability, T/C (second compound 0.0949 µM, first compound 3.16 µM): 36.1%
viability, T/C (second compound 0.0949 µM, first compound 10 µM): 24.5%
viability, T/C (second compound 0.3 µM, first compound 0.0316 µM): 93.4%
viability, T/C (second compound 0.3 µM, first compound 0.1 µM): 85.5%
viability, T/C (second compound 0.3 µM, first compound 0.316 µM): 83%
viability, T/C (second compound 0.3 µM, first compound 1 µM): 56.9%
viability, T/C (second compound 0.3 µM, first compound 3.16 µM): 36.6%
viability, T/C (second compound 0.3 µM, first compound 10 µM): 28%
